Laboratory results from patent publication US20200275656A1, “TRISUBSTITUTEDSILYLMETHYLPHENOXYQUINOLINES AND ANALOGUES” (Bayer Aktiengesellschaft, priority 2017, published 2020).

Columns and labels:
[1] = log P determination by HPLC on reversed-phase column (C 18), EEC Directive 79/831 Annex V.A8; format: physicochemical; conditions: for chromatographic logP: reversed-phase HPLC column (C 18)
Protocol: In table 1, the log P values were determined in accordance with EEC Directive 79/831 Annex V.A8 by HPLC (High Performance Liquid Chromatography) on a reversed-phase column (C 18), using the method described below:
temperature: 40° C.; mobile phases: 0.1% aqueous formic acid and acetonitrile; linear gradient from 10% acetonitrile to 95% acetonitrile; Calibration was carried out using unbranched alkan-2-ones (comprising 3 to 16 carbon atoms) with known log P values (determination of the log P values by the retention times using linear interpolation between two successive alkanones). lambda-max-values were determined using UV-spectra from 200 nm to 400 nm and the peak values of the chromatographic signals.

[2] = system: Colletotrichum lindemuthianum; assay: Example B: in vitro cell test on Colletotrichum lindemuthianum; format: cell-based; conditions: 120 h, 20 ppm of active ingredient, liquid culture, 5 days incubation, read-out: efficacy (inhibition of fungal growth)
Pyricularia oryzae = assay: microbe, parasite or virus in culture; format: cell-based; conditions: 120 h, read-out: efficacy (inhibition of fungal growth)
[3] = Table 1, HPLC, 40° C., 0.1% aqueous formic acid and acetonitrile
[4] = Table 2, compounds of formula (IIa), defined as for table 1

SMILES | logP [1, 3] | also measured
Cc1nc2ccccc2cc1Oc1ccc(Cl)cc1C[Si](C)(C)C [I.29] | 5.71 | 
Cc1nc2ccccc2cc1Oc1cccc(F)c1C[Si](C)(C)C [I.18] | 5.38 | 
Cc1nc2c(F)cccc2cc1Oc1ccccc1C[Si](C)(C)C [I.17, 8-fluoro-2-methyl-3-{2-[(trimethylsilyl)methyl]phenoxy}quinoline] |  | chromatographic logP [1, 3]: 5.85; chromatographic logP ([1]; stated in preparation examples): 5.85
Cc1nc2ccccc2cc1Oc1ccc(F)cc1C[Si](C)(C)C [I.20] | 5.01 | 
C=C[Si](C)(C)Cc1ccccc1Oc1cnc2c(F)cccc2c1 [I.14] | 5.45 | 
Cc1nc2ccccc2nc1Oc1ccccc1C[Si](C)(C)C [I.07] | 5.59 | 
Cc1cccc2cc(Oc3ccccc3C[Si](C)(C)C)cnc12 [I.06] | 6.60 | 
C[Si](C)(Cc1cc(Cl)ccc1Nc1cnc2ccccc2c1)c1ccccc1 [I.52] | 4.69 | 
Cc1cccc2cc(Nc3ccc(C[Si](C)(C)C)cc3C[Si](C)(C)C)cnc12 [I.54] | 6.93 | 
C[Si](C)(O)Cc1c(Cl)cccc1Oc1cnc2ccccc2c1 [I.25, [2-chloro-6-(quinolin-3-yloxy)benzyl](dimethyl)silanol] |  | chromatographic logP [1, 3]: 3.48; chromatographic logP ([1]; stated in preparation examples): 3.48; inhibition at 20 ppm [2]: 90 to 100%
C[Si](C)(Cc1ccccc1Oc1cnc2c(F)cccc2c1)c1cccs1 [I.46, 3-(2-{[dimethyl(2-thienyl)silyl]methyl}phenoxy)-8-fluoroquinoline] |  | chromatographic logP [1, 3]: 5.6; chromatographic logP ([1]; stated in preparation examples): 5.6; inhibition at 20 ppm (Pyricularia oryzae): 90 to 100%; inhibition at 20 ppm [2]: 90 to 100%
COc1ccc([Si](C)(C)Cc2c(Cl)cccc2Oc2cnc3ccccc3c2)cc1 [I.63] | 6.20 | 
C[Si](C)(C)Cc1c(F)cccc1Oc1cnc2c(F)c(F)ccc2n1 [I.33] | 5.60 | 
C=C[Si](C)(C)Cc1c(Cl)cccc1Oc1cnc2ccccc2c1 [I.27] | 6.11 | 
C[Si](C)(Cc1cc(F)ccc1Nc1cnc2ccccc2c1)c1ccccc1 [I.39] | 3.99 | 
C[Si](C)(C)Cc1ccccc1Oc1cnc2c(C(F)(F)F)cccc2c1 [I.35] | 6.28 | 
C[Si](C)(Cc1c(Cl)cccc1Oc1cnc2ccccc2c1)c1ccccc1 [I.53] | 6.43 | 
Cc1cccc2cc(Oc3cccc(F)c3C[Si](C)(C)c3ccccc3)cnc12 [I.51] | 6.90 | 
C[Si](C)(C)Cc1ccccc1Oc1cnc2ccccc2c1 [I.02] | 5.48 | 
C[Si](C)(C)Cc1cc(Cl)ccc1Nc1cnc2ccccc2c1 [I.21] | 4.39 | 
C[Si](C)(C)Cc1ccccc1Oc1cnc2c(F)c(F)ccc2n1 [I.26] | 5.54 | 
C[Si](C)(C)Cc1cc(F)ccc1Nc1cnc2c(C(F)(F)F)cccc2c1 [I.42] | 5.54 | 
C[Si](C)(C)Cc1ccccc1Oc1cnc2c(F)c(F)ccc2c1 [I.24] | 5.72 | 

SMILES | logP [1, 3] | also measured
COc1ccccc1[Si](C)(C)Cc1c(F)cccc1Oc1cnc2ccccc2c1 [I.61] | 6.01 | 
Cc1cccc2cc(Nc3ccc(Cl)cc3C[Si](C)(C)C)cnc12 [I.28] | 5.38 | 
Cc1cccc2cc(Nc3ccc(F)cc3C[Si](C)(C)C)cnc12 [I.16] | 4.56 | 
C[Si](C)(O)Cc1c(F)cccc1Oc1cnc2ccccc2c1 [I.13] | 3.15 | 
C[Si](C)(C)Cc1c(F)cccc1Oc1cnc2c(C(F)(F)F)cccc2n1 [I.48] | 6.04 | 
C[Si](C)(C)Cc1ccccc1Cc1cnc2ccccc2c1 [I.01] | 4.28 | 
C[Si](C)(C)Cc1ccc(Nc2cnc3ccccc3c2)c(C[Si](C)(C)C)c1 [I.43] | 5.85 | 
Cc1cccc2cc(Oc3ccccc3C[Si](C)(C)c3ccccc3)cnc12 [I.38] | 6.83 | 
C[Si](C)(C)Cc1cc(Cl)ccc1Nc1cnc2c(C(F)(F)F)cccc2c1 [I.55] | 6.00 | 
C[Si](C)(C)Cc1ccccc1Oc1cnc2c(C(F)(F)F)cccc2n1 [I.37] | 5.97 | 
C[Si](C)(C)Cc1ccccc1Oc1cnc2ccccc2n1 [I.04] | 5.36 | 
C[Si](C)(Cc1c(F)cccc1Oc1cnc2ccccc2c1)c1cccs1 [I.47] | 5.65 | 
C[Si](C)(C)Cc1cc(F)ccc1Nc1cnc2ccccc2c1 [I.08] | 3.69 | 
C[Si](C)(C)Cc1c(Cl)cccc1Oc1cnc2c(C(F)(F)F)cccc2n1 [I.57] | 6.51 | 
COc1ccc([Si](C)(C)Cc2c(F)cccc2Oc2cnc3ccccc3c2)cc1 [I.60] | 5.65 | 
Cc1nc2c(F)c(F)ccc2nc1Oc1c(F)cccc1C[Si](C)(C)C [I.36] | 5.87 | 
C[Si](C)(C)Cc1ccccc1Oc1cnc2c(F)cccc2n1 [I.12] | 5.26 | 
C[Si](C)(C)Cc1ccc(Nc2cnc3c(C(F)(F)F)cccc3c2)c(C[Si](C)(C)C)c1 [I.65] | 7.36 | 
OCc1ccccc1Oc1cnc2c(F)cccc2c1 [V.01, {2-[(8-fluoroquinolin-3-yl)oxy]phenyl}methanol] |  | chromatographic logP ([1]; Table 3, compounds of formula (V), defined as for table 1): 2.17
Cc1cccc2cc(Nc3ccc(Cl)cc3C[Si](C)(C)c3ccccc3)cnc12 [I.58] | 5.68 | 
Fc1cccc2cc(Oc3ccccc3CBr)cnc12 [IIa.03, 3-[2-(bromomethyl)phenoxy]-8-fluoroquinoline] |  | chromatographic logP [1, 4]: 3.58; chromatographic logP ([1]; stated in preparation examples): 3.65
C[Si](C)(Cc1c(F)cccc1Oc1cnc2ccccc2c1)c1ccccc1 [I.41] | 5.91 | 
Cc1nc2c(F)c(F)ccc2cc1Nc1ccccc1C[Si](C)(C)C [I.30] | 5.32 | 

SMILES | logP [1, 3] | also measured
Cc1cccc2cc(Nc3ccc(F)cc3C[Si](C)(C)c3ccccc3)cnc12 [I.50] | 4.90 | 
Cc1nc2c(F)c(F)ccc2nc1Oc1cccc(Cl)c1C[Si](C)(C)O [I.49] | 4.13 | 
C[Si](C)(Cc1c(Cl)cccc1Oc1cnc2ccccc2c1)c1cccs1 [I.56] | 6.20 | 
C[Si](C)(C)Cc1ccccc1Nc1cnc2c(F)cccc2c1 [I.09] | 4.77 | 
C[Si](C)(C)Cc1ccccc1Oc1cnc2c(F)cccc2c1 [I.10] | 5.45 | 
C=C[Si](C)(C)Cc1c(F)cccc1Oc1cnc2ccccc2c1 [I.15] | 5.57 | 
C[Si](C)(C)Cc1c(F)cccc1Oc1cnc2c(C(F)(F)F)cccc2c1 [I.45] | 6.32 | 
C[Si](C)(O)Cc1ccccc1Cc1cnc2ccccc2c1 [I.03] | 2.13 | 
Cc1nc2c(F)c(F)ccc2cc1Oc1ccc(F)cc1C[Si](C)(C)C [I.34] | 5.92 | 
C[Si](C)(C)Cc1ccccc1Nc1cnc2c(F)c(F)ccc2c1 [I.23] | 5.03 | 
Cc1nc2c(F)c(F)ccc2nc1Oc1cccc(Cl)c1C[Si](C)(C)C [I.44] | 6.40 | 
Cc1nc2ccccc2cc1Oc1ccccc1C[Si](C)(C)C [I.05, 2-methyl-3-{2-[(trimethylsilyl)methyl]phenoxy}quinoline] |  | chromatographic logP [1, 3]: 5.05; chromatographic logP ([1]; stated in preparation examples): 5.05; inhibition at 20 ppm (Pyricularia oryzae): 90 to 100%; inhibition at 20 ppm [2]: 90 to 100%
Cc1cccc2cc(Oc3cccc(F)c3C[Si](C)(C)C)cnc12 [I.19] | 6.70 | 
C[Si](C)(C)Cc1c(F)cccc1Oc1cnc2ccccc2c1 [I.11] | 5.54 | 
C[Si](C)(C)Cc1c(Cl)cccc1Oc1cnc2ccccc2c1 [I.22] | 6.17 | 
Fc1cccc(Oc2cnc3ccccc3c2)c1CCl [IIa.02, 3-[2-(chloromethyl)-3-fluorophenoxy]quinoline] |  | chromatographic logP [1, 4]: 3.57
Cc1nc2c(F)c(F)ccc2nc1Oc1ccccc1C[Si](C)(C)C [I.32] | 5.81 | 
COc1ccccc1[Si](C)(C)Cc1c(Cl)cccc1Oc1cnc2ccccc2c1 [I.62] | 6.50 | 
COc1ccc([Si](C)(C)Cc2ccccc2Oc2cnc3c(F)cccc3c2)cc1 [I.59] | 5.62 | 
C[Si](C)(Cc1ccccc1Oc1cnc2c(F)cccc2c1)c1ccccc1 [I.40] | 5.78 | 
ClCc1c(Cl)cccc1Oc1cnc2ccccc2c1 [IIa.01, 3-[3-chloro-2-(chloromethyl)phenoxy]quinoline] |  | chromatographic logP [1, 4]: 3.94
